Like-named read-outs stand apart in the source and are kept apart here.

For data set [1] the following is noted: properties of commercial hydrogen peroxide; cited from earlier work.
For data set [2] the following is noted: properties of commercial hydrogen peroxide; cited from earlier work. The source holds these as a separate data set.
The conditions of data set [3]: properties of commercial hydrogen peroxide; cited from earlier work. This is another data set of the same source.
The conditions of data set [4]: properties of commercial hydrogen peroxide; cited from earlier work. The source holds these as a separate data set.
The conditions of data set [5]: cited from earlier work.
Data set [6] has as its system Gram + and Gram − bacteria, fungi and yeasts. The note with it: cited from earlier work.
The conditions of data set [7]: cited from earlier work. This is another data set of the same source.
Data set [8] concerns Bacterial spores. The note with it: cited from earlier work.
The test system of data set [9] is Enterovirus. The note with it: cited from earlier work.
The test system of data set [10] is Poliovirus. Particulars: cited from earlier work.
The test system of data set [11] is spores of bacillus subtilis. The note with it: alcohol at concentrations of about 20% (or higher); cited from earlier work.
Data set [12] is described as follows: Miscibility in water. Type of data set: physicochemical. On the procedure: (§1) The above listed components were weighed separately, taking particular care with the concentrated sulfuric acid, which must be handled under a hood and with protection gloves. The components were mixed in the above listed sequence, making sure that the component being dealt with was perfectly mixed before adding the next one. After addition of the components, the mixture was stirred for 15 minutes, left to rest for 10 minutes and a sample was retrieved for checking its chemical and physical properties.
(§2) The following chemical-physical properties were measured: […]

A short description of data set [13]: Specific gravity of the solutions at 20° C. Type of data set: physicochemical. The protocol: as §1, §2
Data set [14] in a line: pH (10% w/w in deionized water) at 20° C. The class given is physicochemical. The protocol:
as §1, §2

`OO` [Hydrogen peroxide, 35% w/w, Hydrogen peroxide]: the “Specific gravity at 20° C.” value in [1] is 1.132 g/mL. In addition, the “pH (10% w/w in deionized water) at 20° C.” value in data set [2] is 2.00-3.00 U of pH. Also, in [3], the Miscibility in water result is on record as “full”. Further, the “Vapor pressure at 20° C.” value in data set [4] is reported as 17-20 mbar.
On to `CC(=O)OO` [PAA, peracetic acid], for which the solubility in water entry in [5] is on record as “infinite”. Besides, the Contact times in [6] (100 ppm PAA) was at most 5 min; in [6] (in the presence of organic material, 200-500 ppm PAA), at most 5 min; in data set [8] (lower end of the 500-30,000 ppm range), 15 min; in [8] (upper end of the 500-30,000 ppm range), 0.25 min; in [9] (2000 ppm PAA), 10 to 30 min; in data set [10], 15 min. Moreover, the “Effect on medical and surgical instruments” value in data set [6] (100 ppm PAA) is reported as “Low-level disinfection”; in [6] (in the presence of organic material), “Low-level disinfection”; in data set [8] it was “Sterilization”. In addition, the “Ppm (%) of PAA” value in data set [6] (inactivated and killed in the presence of organic material) is listed as 200-500 Ppm; in data set [6] (microorganisms are inactivated and killed) it was 100 (0.01%) Ppm; in [8], 500-30,000 Ppm; in data set [9], 2000 (0.2%) Ppm; in data set [10], 1500-2250 Ppm. Moreover, the “loss of active ingredient per month” value in [7] (40% w/w solution, per month) is 1 to 2%.
Regarding `CC(C)O` [Isopropyl alcohol], the “effect with PAA as regards its germicidal activity” value in data set [11] is “synergistic effect”.
With `OO` [hydrogen peroxide], in [7] (hydrogen peroxide (30 to 90%), per year), the “loss of active ingredient per year” value is “less than 1%”.
With `OO` [Hydrogen peroxide, 50% w/w, Hydrogen peroxide], the Miscibility in water entry in data set [12] is listed as “full”. The “Specific gravity at 20° C.” value in [13] is 1.280 g/mL. Moreover, the “pH (10% w/w in deionized water) at 20° C.” value in data set [14] was 2.00-3.00 U of pH.
Regarding `CCO` [Ethyl alcohol], the “effect with PAA as regards its germicidal activity” value in data set [11] is reported as “synergistic effect”.
